The nature of series [1]: Hygroscopicity by gravimetric moisture absorption. In kind it is physicochemical. The following applies: for water absorbed (hygroscopicity): relative air humidity of 90%. The text has this:
Samples were also studied using the following methods: polarization microscopy (Leica DMRB Polarized Microscope, resolution of 1600×1200)—to confirm crystallinity, ion chromatography—to confirm anion and cation stoichiometric proportion, differential scanning calorimetry (DSC) and thermogravimetric analysis (TGA)—to confirm composition and study of temperature stability of samples; ^1H NMR (500 MHz Bruker AVANCE 500.13 MHz, solvent DMSO-d6)—to confirm structure, assess purity and content of organic solvents; gravimetric moisture absorption—to assess hygroscopicity. DSC was carried out using Mettler 822e DSC apparatus. The measuring system was calibrated according to ISO 11357-1 standard based on standard substances phase changes (C6H12; Hg; benzoic acid; Ga; KNO3; In; Sn; Bi; CsCl; purity grade 99.99%). Temperature calibration regular error (determined based on In) is 0.1°. Samples were tested in standard aluminum cells in the artificial air flow at a temperature range of 30-300° C. with heating speed of 10°/min. TG measurements were taken using Mettler 851e SDTA/TGA TG analyzer. The apparatus was calibrated using standard substances melting points (Ag; Al; Bi; In; Sn; purity grade of 99.99%). Weighing error is NMT 0.1% (determined using CaC2O4·2H2O standard). The test was carried out in a standard open aluminum container in the artificial air flow at a temperature range of 30-150° C. with heating speed of 10°/min. To avoid dehydration, the material was not exposed to mechanical treatment before taking measurements.

For series [2] the following is noted: for pH: equilibrium solubility test in water; for Crystallinity in 24 h: solid in water, equilibrium solubility test.
The nature of series [3]: Stability, 7 days at T = 60° C. In kind it is physicochemical. The conditions noted are these: for Crystallinity in 7 days / Relative peak area, in 7 days: 7 days at T = 60° C.; for Relative peak area, initial: before storage; for content of impurities: kept seven days at 60° C.
Series [4] can be described thus: Stability of polymorph modifications, suspending in acetone for 6 days. The following applies: for crystalline structure after suspending in acetone: 6 days; for Crystallinity in 6 days: suspending in acetone for 6 days, room temperature. In kind it is physicochemical. The procedure: Crystallinity of all samples obtained was studied using the method of X-ray powder diffraction (to study the crystallinity structure). Diffraction patterns were obtained at a temperature of 25° C. […] Survey step 0.02° 2θ, angle range 3-45° 2θ. Diffraction patterns obtained were studied in detail using X'Pert HighScore Plus software package.

The nature of series [5]: Dissolution kinetics (USP Apparatus 1 Basket Method). In kind it is physicochemical. The following applies: 780 minutes after beginning; medium distilled water.
Protocol: During further studies of the polymorphous modifications of the methanesulfonic acid salt of 3-(1,2,4-triazolo[4,3-a]pyridine-3-ylethynyl)-4-methyl-N-(4-((4-methylpiperazine-1-yl)methyl)-3-trifluoromethylphenyl)benzamide, the kinetics of dissolution of the free base and the two methanesulfonic acid salt form polymorphous modifications was studied. Dissolution kinetics studies were performed using USP Apparatus 1 Basket Method (USP40, General Chapter <711>. Dissolution), dissolution media volume—700 mL, temperature—37±1° C. paddle stirrers' rotation rate—100 rpm. The test sample dissolution rate was calculated as an average of six repeats. Distilled water was used as the dissolution medium for the polymorphous modifications of 3-(1,2,4-triazolo[4,3-a]pyridine-3-ylethynyl)-4-methyl-N-(4-((4-methylpiperazine-1-yl)methyl)-3-trifluoromethylphenyl)benzamide methanesulfonic acid salt and, and a solution of 12.2 mL of methanesulfonic acid in 500 mL of water was used as the dissolution medium for the free base. Test portions containing 100 mg of 3-(1,2,4-triazolo[4,3-a]pyridine-3-ylethynyl)-4-methyl-N-(4-((4-methylpiperazine-1-yl)methyl)-3-trifluoromethylphenyl)benzamide or 118 mg of 3-(1,2,4-triazolo[4,3-a]pyridine-3-ylethynyl)-4-methyl-N-(4-((4-methylpiperazine-1-yl)methyl)-3-trifluoromethylphenyl)benzamide methanesulfonic acid salt (100 mg calculated as free base) were used for dissolution. In 780 minutes (13 hours) after the beginning of the test, pH of prepared solutions was measured.
A short description of another series: in vivo. Also noted: species or system C57BL/6 line mice. The procedure:
FIGS. 52A-52B. […] The mean values were determined for each time point on the basis of the individual data obtained from three animals.
The results of the study are given in FIG. 52 and in Tables 14 and 15.

The nature of a further series: physchem. In kind it is physicochemical. The following applies: deionized water, RT.
Setting [6] is: mesylate polymorphous modification I 59 mg/kg (50 mg/kg as free base), single oral, C57BL/6 mice.

Take `Cc1ccc(C(=O)Nc2ccc(CN3CCN(C)CC3)c(C(F)(F)F)c2)cc1C#Cc1nnc2ccccn12.Cl` [HAL-G-196-3]: in series [1], the “water absorbed (hygroscopicity)” value is “less than 8 mass percent”. In addition, in series [2], the pH was found to be 4.0 and the “Crystallinity in 24 h” value was “Amorphous”. For the same compound, in series [3], the “Crystallinity in 7 days” value is “Form II”; the “Relative peak area, in 7 days” value is recorded as 99.9%; the “Relative peak area, initial” value is listed as 99.9%; the content of impurities entry is given as “remained constant”. Besides, in series [4], the “crystalline structure after suspending in acetone” value (“crystalline structure” below) was “remained unchanged” and the “Crystallinity in 6 days” value was “Form II”.

Usually Tmax stands for the time at which the peak concentration occurs. For `CS(=O)(=O)O.Cc1ccc(C(=O)Nc2ccc(CN3CCN(C)CC3)c(C(F)(F)F)c2)cc1C#Cc1nnc2ccccn12` [methanesulfonic acid salt (polymorphous modification I)] [3-(1,2,4-triazolo[4,3-a]pyridine-3-ylethynyl)-4-methyl-N-(4-((4-methylpiperazin-1-yl)methyl)-3-trifluoromethylphenyl)benzamide mono methanesulfonic acid salt, polymorphous modification I], the “pH of prepared solution” value in series [5] is given as 5.04. In addition, in the series “in vivo” (setting [6]), the AUC0-24 is given as 11,933 ngh/mL, the AUC0-24/24 worked out at 497 ng/mL, the “AUC0-∞” value was 12,103 ng · h/mL and the Cmax was 1,099 ng/mL. Further, in the series “in vivo” (setting [6]), the T1/2 stood at 3.8 h and the Tmax is 4 h.

On to `Cc1ccc(C(=O)Nc2ccc(CN3CCN(C)CC3)c(C(F)(F)F)c2)cc1C#Cc1nnc2ccccn12.Cc1ccc(S(=O)(=O)O)cc1` [HAL-G-196-24], for which the “water absorbed (hygroscopicity)” value in series [1] is reported as “less than four mass percent of water”. Further, in series [2], the pH is 3.5 and the “Crystallinity in 24 h” value was “Cryst”. For the same compound, in series [3], the “Crystallinity in 7 days” value is on record as “Cryst”; the “Relative peak area, in 7 days” value amounted to 99.9%; the “Relative peak area, initial” value amounted to 99.8%; the content of impurities entry is “remained constant”. Also, in series [4], the “crystalline structure” value is reported as “remained unchanged”.

For the compound `Cc1ccc(C(=O)Nc2ccc(CN3CCN(C)CC3)c(C(F)(F)F)c2)cc1C#Cc1nnc2ccccn12.O=C(O)/C=C/C(=O)O` [HAL-G-196-29], the “water absorbed (hygroscopicity)” value in series [1] is given as “less than four mass percent of water”. For the same compound, in series [2], the pH came to 4.2 and the “Crystallinity in 24 h” value is listed as “Cryst”. For the same compound, in series [3], the “Crystallinity in 7 days” value is listed as “Cryst”; the “Relative peak area, in 7 days” value stood at 99.9%; the “Relative peak area, initial” value is 99.8%; the content of impurities entry was “remained constant”. In series [4], the “crystalline structure” value is on record as “remained unchanged” and the “Crystallinity in 6 days” value is “Cryst”.

Turning to `Cc1ccc(C(=O)Nc2ccc(CN3CCN(C)CC3)c(C(F)(F)F)c2)cc1C#Cc1nnc2ccccn12.Cl` [HAL-G-196-2], the Apparent solubility in “physchem” is over 29 mg/mL. The “sample hygroscopicity (water sorption and desorption)” value in series [1] (gravimetric moisture absorption) was “desorbed and sorbed water, the volume of which corresponded to a dihydrate”.

For `CS(=O)(=O)O.Cc1ccc(C(=O)Nc2ccc(CN3CCN(C)CC3)c(C(F)(F)F)c2)cc1C#Cc1nnc2ccccn12` [methanesulfonic acid salt (polymorphous modification II)] [3-(1,2,4-triazolo[4,3-a]pyridine-3-ylethynyl)-4-methyl-N-(4-((4-methylpiperazin-1-yl)methyl)-3-trifluoromethylphenyl)benzamide mono methanesulfonic acid salt, polymorphous modification II], the “pH of prepared solution” value in series [5] is on record as 4.95. Besides, the “differences in all pharmacokinetic parameters studied versus polymorphous modification I” value in “in vivo” (mouse, in vivo) is given as “No statistically true differences in all pharmacokinetic parameters studied were revealed after administration of the salt form as polymorphous modification II (p < 0.05)”.

`Br.Cc1ccc(C(=O)Nc2ccc(CN3CCN(C)CC3)c(C(F)(F)F)c2)cc1C#Cc1nnc2ccccn12` [HAL-G-196-7]: the “water absorbed (hygroscopicity)” value in series [1] was “more than ten mass percent of water and thawed in the air”.
